Experiment: xn = mol fraction of the nth substance listed
Details: 101 kPa

O=C1CCCN1 + CC[n+]1ccn(C)c1.F[B-](F)(F)F
speed of sound [m/s]
Details	293.15 K	298.15 K	303.15 K	308.15 K
x1 = 0.0786	1634.5	1622.4	1612.6	1602.5
x1 = 0.0912	1635	–	1613.4	1603.4
x1 = 0.1278	1636.6	1624.6	1615.4	1605.6
x1 = 0.1711	–	1626.5	–	–
x1 = 0.2294	–	–	1620.5	–
x1 = 0.2686	1642.3	1630.8	1622.3	–
x1 = 0.3292	1644.6	1633.3	1624.5	1613.2
x1 = 0.3684	1646.2	1634.8	1626	1614
x1 = 0.4283	1648.7	1637.1	1627.7	1615
x1 = 0.4695	1650.2	1638.6	1628.3	1615.7
x1 = 0.5281	–	1640	1629.2	1615.9
x1 = 0.5711	1653.7	1641.1	–	1616.2
x1 = 0.6283	1655.2	1641.9	1629.5	1615.9
x1 = 0.6603	1656	1642.1	1629.2	1615.3
x1 = 0.7302	1656.7	–	1628	–
x1 = 0.7598	–	1641.5	1627.1	–
x1 = 0.8296	1656.4	1640.1	1624.9	1611
x1 = 0.8901	–	1638.4	–	1608.3

CC[n+]1ccn(C)c1.F[B-](F)(F)F + CN1CCCC1=O
speed of sound [m/s]
Details	293.15 K	298.15 K	303.15 K	308.15 K
x2 = 0.0696	–	–	1598	1586.4
x2 = 0.0871	–	1607.6	1595.9	1584.2
x2 = 0.1273	1615.1	1603.2	–	1579.3
x2 = 0.1676	1611.5	1599.5	1587.2	–
x2 = 0.2658	1605.6	1592	1579	1565.5
x2 = 0.2689	1605.3	1592	–	1565.2
x2 = 0.3228	1603.2	1589	1575.2	1560.7
x2 = 0.3683	1601.7	1586.9	–	1557.7
x2 = 0.4291	1600	1584.2	–	–
x2 = 0.4744	1599.2	1582.6	1566.9	1551
x2 = 0.5227	1597.8	1581	–	1547.9
x2 = 0.5685	1596.9	1579	1562.4	1545.4
x2 = 0.6286	1595	1576.7	1559.3	1541.5
x2 = 0.6703	1593	1574.5	–	1539
x2 = 0.7291	1590.1	1571.2	1553.4	1534.5
x2 = 0.7711	1587.7	–	1550.1	1531.2
x2 = 0.8188	1584	1564.7	–	–
x2 = 0.8887	1577.9	1558.4	1539.7	1520.3

Source: a compilation of properties of binary mixtures (doi:10.1021/je300542s)
